Laboratory results published in patent US7381521B2, “Anti-pathogenic composition useful in blood preservation” (Altachem Pharma Ltd., priority 2001, dated 2008).

Key:
S. aureus ATCC 6538 = assay: Test 2 (DGHM), action as a function of disinfection time at 22° C., 8 × 10^8 organisms/ml; type: cell-based, Staphylococcus aureus
Procedure: (§1) Another test was carried out a basis of the following solutions • 100 ml of a 0.1% solution of chlorohexidine digluconate (pH 6); and • 100 ml of a 0.1% solution of Bardac22®.
(§2) The activity of these solutions, alone or in combination, was more particularly tested in respect of Staphylococcus aureus ATCC 6538, Escherichia coli ATCC 11229 and Candida albicans ATCC 10231.
(§3) The tests were conducted in accordance with the procedure described in Chapter I/2.1 and 2.2 of Tichtlinien für die Prüfung und Bewertung chemischer Desinfektionsverfahren der DGHM/Guidelines for Testing and Evaluating Chemical Disinfection Processes of DGHM as at 1.1, 1981.

E. coli ATCC 11229 = assay: Test 2 (DGHM), action as a function of disinfection time at 22° C., 2 × 10^9 organisms/ml; type: cell-based, Escherichia coli
Procedure: as §1, §2, §3

[H]/N=C(\N/C(=N/[H])NCCCCCCNC(=N)NC(=N)Nc1ccc(Cl)cc1)Nc1ccc(Cl)cc1 [Chlorhexidine, chlorohexidine digluconate, reference compound]
growth (S. aureus ATCC 6538; 0.5% vol/vol, 1 min): + | growth (S. aureus ATCC 6538; 0.5% vol/vol, 3 min): + | growth (S. aureus ATCC 6538; 0.5% vol/vol, 5 min): + | growth (S. aureus ATCC 6538; 0.5% vol/vol, 15 min): + | growth (S. aureus ATCC 6538; 0.5% vol/vol, 30 min): + | growth (S. aureus ATCC 6538; 0.5% vol/vol, 60 min): + | growth (S. aureus ATCC 6538; 1% vol/vol, 1 min): + | growth (S. aureus ATCC 6538; 1% vol/vol, 3 min): + | growth (S. aureus ATCC 6538; 1% vol/vol, 5 min): + | growth (S. aureus ATCC 6538; 1% vol/vol, 15 min): + | growth (S. aureus ATCC 6538; 1% vol/vol, 30 min): + | growth (S. aureus ATCC 6538; 1% vol/vol, 60 min): + | growth (S. aureus ATCC 6538; 5% vol/vol, 1 min): + | growth (S. aureus ATCC 6538; 5% vol/vol, 3 min): + | growth (S. aureus ATCC 6538; 5% vol/vol, 5 min): + | growth (S. aureus ATCC 6538; 5% vol/vol, 15 min): + | growth (S. aureus ATCC 6538; 5% vol/vol, 30 min): + | growth (S. aureus ATCC 6538; 5% vol/vol, 60 min): + | growth (S. aureus ATCC 6538; 10% vol/vol, 1 min): + | growth (S. aureus ATCC 6538; 10% vol/vol, 3 min): + | growth (S. aureus ATCC 6538; 10% vol/vol, 5 min): + | growth (S. aureus ATCC 6538; 10% vol/vol, 15 min): + | growth (S. aureus ATCC 6538; 10% vol/vol, 30 min): + | growth (S. aureus ATCC 6538; 10% vol/vol, 60 min): − | growth (S. aureus ATCC 6538; 25% vol/vol, 1 min): + | growth (S. aureus ATCC 6538; 25% vol/vol, 3 min): + | growth (S. aureus ATCC 6538; 25% vol/vol, 5 min): + | growth (S. aureus ATCC 6538; 25% vol/vol, 15 min): + | growth (S. aureus ATCC 6538; 25% vol/vol, 30 min): − | growth (S. aureus ATCC 6538; 25% vol/vol, 60 min): − | growth (E. coli ATCC 11229; 0.05% vol/vol, 1 min): + | growth (E. coli ATCC 11229; 0.05% vol/vol, 3 min): + | growth (E. coli ATCC 11229; 0.05% vol/vol, 5 min): + | growth (E. coli ATCC 11229; 0.05% vol/vol, 15 min): + | growth (E. coli ATCC 11229; 0.05% vol/vol, 30 min): + | growth (E. coli ATCC 11229; 0.05% vol/vol, 60 min): + | growth (E. coli ATCC 11229; 0.1% vol/vol, 1 min): + | growth (E. coli ATCC 11229; 0.1% vol/vol, 3 min): + | growth (E. coli ATCC 11229; 0.1% vol/vol, 5 min): + | growth (E. coli ATCC 11229; 0.1% vol/vol, 15 min): + | growth (E. coli ATCC 11229; 0.1% vol/vol, 30 min): + | growth (E. coli ATCC 11229; 0.1% vol/vol, 60 min): + | growth (E. coli ATCC 11229; 0.5% vol/vol, 1 min): + | growth (E. coli ATCC 11229; 0.5% vol/vol, 3 min): + | growth (E. coli ATCC 11229; 0.5% vol/vol, 5 min): + | growth (E. coli ATCC 11229; 0.5% vol/vol, 15 min): + | growth (E. coli ATCC 11229; 0.5% vol/vol, 30 min): + | growth (E. coli ATCC 11229; 0.5% vol/vol, 60 min): + | growth (E. coli ATCC 11229; 1% vol/vol, 1 min): + | growth (E. coli ATCC 11229; 1% vol/vol, 3 min): + | growth (E. coli ATCC 11229; 1% vol/vol, 5 min): + | growth (E. coli ATCC 11229; 1% vol/vol, 15 min): + | growth (E. coli ATCC 11229; 1% vol/vol, 30 min): + | growth (E. coli ATCC 11229; 1% vol/vol, 60 min): + | growth (E. coli ATCC 11229; 5% vol/vol, 1 min): + | growth (E. coli ATCC 11229; 5% vol/vol, 3 min): + | growth (E. coli ATCC 11229; 5% vol/vol, 5 min): + | growth (E. coli ATCC 11229; 5% vol/vol, 15 min): + | growth (E. coli ATCC 11229; 5% vol/vol, 30 min): − | growth (E. coli ATCC 11229; 5% vol/vol, 60 min): − | growth (E. coli ATCC 11229; 10% vol/vol, 1 min): + | growth (E. coli ATCC 11229; 10% vol/vol, 3 min): + | growth (E. coli ATCC 11229; 10% vol/vol, 5 min): + | growth (E. coli ATCC 11229; 10% vol/vol, 15 min): − | growth (E. coli ATCC 11229; 10% vol/vol, 30 min): − | growth (E. coli ATCC 11229; 10% vol/vol, 60 min): − | growth (E. coli ATCC 11229; 25% vol/vol, 1 min): + | growth (E. coli ATCC 11229; 25% vol/vol, 3 min): + | growth (E. coli ATCC 11229; 25% vol/vol, 5 min): + | growth (E. coli ATCC 11229; 25% vol/vol, 15 min): − | growth (E. coli ATCC 11229; 25% vol/vol, 30 min): − | growth (E. coli ATCC 11229; 25% vol/vol, 60 min): −
